Laboratory results: patent US20170107179A1 (Tetraphase Pharmaceuticals, Inc., priority 2010, published 2017)

Test system: Gram-negative and Gram-positive organisms (clinical isolates)
Assay: Broth microdilution MIC against clinical isolates (CLSI M7-A8), Table 9
Type: cell-based

CN(C)c1cc(NC(=O)CNC(C)(C)C)c(O)c2c1C[C@H]1C[C@H]3[C@H](N(C)C)C(O)=C(C(N)=O)C(=O)[C@@]3(O)C(O)=C1C2=O [Tigecycline, tigecycline]
MICs against tetracycline resistant isolates relative to tetracycline susceptible isolates: not notably altered
